The text below walks through data of patent US5164399A, “Rapamycin pyrazoles” (American Home Products Corporation, priority 1991, dated 1992).

Like-named read-outs stand apart in the source and are kept apart here.

Assay [1] deals with cells from the thymus of normal BALB/c mice (lymphocyte proliferation). Description: comitogen-induced thymocyte proliferation procedure (LAF). The format is cell-based. The following applies: Mus musculus; for inhibition at 0.1 µM: read-out: LAF percent inhibition at 100 nM. The procedure:
(§1) Immunosuppressive activity was evaluated in an in vitro standard pharmacological test procedure to measure lymphocyte proliferation (LAF) and in two in vivo standard pharmacological test procedures. The first in vivo procedure was a popliteal lymph node (PLN) test procedure which measured the effect of compounds of this invention on a mixed lymphocyte reaction and the second in vivo procedure evaluated the survival time of a pinch skin graft.
Briefly, cells from the thymus of normal BALB/c mice are cultured for 72 hours with PHA and IL-1 and pulsed with tritiated thymidine during the last six hours. […] Cells are harvested and incorporated; radioactivity is determined. Inhibition of lymphoproliferation is assessed in percent change in counts per minute from non-drug treated controls. The results are expressed as the IC50, expressed in nM, or as the percent inhibition at 100 nM.

For a further assay, the system named is pinch skin graft. The assay can be described thus: survival time of pinch skin graft. The format is in vivo, male BALB/c mice recipients (male DBA/2 donors). The following applies: intraperitoneally. The procedure: as §1
The second in vivo test procedure is designed to determine the survival time of pinch skin graft from male DBA/2 donors transplanted to male BALB/c recipients. The method is adapted from Billingham R. E. and Medawar P. B., J. Exp. Biol. 28: 385-402, (1951). Briefly, a pinch skin graft from the donor is grafted on the dorsum of the recipient as a homograft, and an autograft is used as control in the same region. […] Untreated recipients serve as rejection control. The graft is monitored daily and observations are recorded until the graft becomes dry and forms a blackened scab. This is considered as the rejection day. The mean graft survival time (number of days±S.D.) of the drug treatment group is compared with the control group.

Assay [2] deals with popliteal lymph nodes (mixed lymphocyte reaction). The assay can be described thus: in vivo popliteal lymph node (PLN) test procedure (mixed lymphocyte reaction). Set-up: species or system C3H mice (BALB/c donors). The procedure:
as §1
A mixed lymphocyte reaction (MLR) occurs when lymphoid cells from genetically distinct animals are combined in tissue culture. Each stimulates the other to undergo blast transformation which results in increased DNA synthesis that can be quantified by the incorporation of tritiated thymidine. Since stimulating a MLR is a function of disparity at Major Histocompatibility antigens, an in vivo popliteal lymph node (PLN) test procedure closely correlates to host vs. graft disease. Briefly, irradiated spleen cells from BALB/c donors are injected into the right hind foot pad of recipient C3H mice. […] On Day 3 and Day 4, tritiated thymidine is given i.p., b.i.d. On Day 5, the hind popliteal lymph nodes are removed and dissolved, and radioactivity counted. The corresponding left PLN serves as the control for the PLN from the injected hind foot. Percent suppression is calculated using the non-drug treated animals as allogenic control. […]

Assay [3] has as its system Candida albicans. The following applies: cited from earlier work.
For assay [4], the system named is Candida albicans. The following applies: cited from earlier work. The source holds these as a separate data set.
In a further assay the test system is organ grafts. The following applies: histoincompatible rodents; cited from earlier work.
[5] abbreviates: thymocytes, PHA and IL-1, 72 hours, tritiated thymidine, read-out: LAF IC50.

As to `CO[C@@H]1C(=O)/C(C)=C/[C@@H](C)C(=O)C[C@@H]([C@H](C)C[C@@H]2CC[C@@H](O)[C@H](OC)C2)OC(=O)[C@@H]2CCCCN2C(=O)C(=O)[C@]2(O)O[C@@H](CC[C@H]2C)C[C@H](OC)/C(C)=C/C=C/C=C/[C@@H](C)C[C@@H](C)C1=O` [Example 1, 31-Deoxy-31-oxorapamycin], the inhibition at 0.1 µM in assay [1] worked out at 41%. The IC50 in assay [1] (setting [5]) is 84.9 nM. Also, in the assay with pinch skin graft, the “Skin Graft (days ± SD), mean graft survival time” value is on record as 9.16 ± 0.47 days.

On to `CO[C@@H]1C(=O)/C(C)=C/[C@@H](C)C(=O)C[C@@H]([C@H](C)C[C@@H]2CCC(=O)[C@H](OC)C2)OC(=O)[C@@H]2CCCCN2C(=O)C(=O)[C@]2(O)O[C@@H](CC[C@H]2C)C[C@H](OC)/C(C)=C/C=C/C=C/[C@@H](C)C[C@@H](C)C1=O` [Example 2, 31,42-Dideoxy-31,42-dioxorapamycin], for which the inhibition at 0.1 µM in assay [1] was determined as 4%.

With `COc1c2n[nH]c1[C@H](C)C[C@H](C)/C=C/C=C/C=C(\C)[C@@H](OC)C[C@@H]1CC[C@@H](C)[C@@](O)(O1)C(=O)C(=O)N1CCCC[C@H]1C(=O)O[C@H]([C@H](C)C[C@@H]1CC[C@@H](O)[C@H](OC)C1)CC(=O)[C@H](C)/C=C/2C` [Example 3, 33-Deoxo-31-deoxy-31,33-(1-hydrazinyl-2-ylidene)rapamycin], the IC50 in assay [1] (setting [5]) worked out at 205 nM. Moreover, the “PLN (ratio)” value in assay [2] (i.p. daily Day 0 to Day 4, ratio as defined) is reported as 0.52.

As for `CO[C@H]1C[C@@H]2CC[C@@H](C)[C@@](O)(O2)C(=O)C(=O)N2CCCC[C@H]2C(=O)O[C@H]([C@H](C)C[C@@H]2CC[C@@H](O)[C@H](OC)C2)CC(=O)[C@H](C)/C=C(\C)[C@@H](O)[C@@H](OC)C(=O)[C@H](C)C[C@H](C)/C=C/C=C/C=C/1C` [Rapamycin, rapamycin], in assay [1] (read-out: LAF IC50 of rapamycin as a control for Example 1), the IC50 was found to be 0.2 nM. In addition, the inhibition at 0.1 µM in assay [1] came to 94%. The “antifungal activity in vivo” value in the assay on Candida albicans [3] is given as “antifungal activity”. The “antifungal activity in vitro” value with Candida albicans [4] was “antifungal activity”. In assay [2] (6 mg/kg, p.o.), the PLN suppression is reported as 86%. Further, the “prolongation of survival time of organ grafts” value in the assay on organ grafts is given as “prolong survival time”. Further, the “Skin Graft (days ± SD), mean graft survival time” value in the assay on pinch skin graft is recorded as 11.66 ± 0.47 days.
